Earlier results in patent publication US4096336A, “5,6-Benzo analogues or prostaglandin E” (Miles Laboratories, Inc., priority 1977, dated 1978).
Read-outs that look alike come from different tables or passages of the source.

Tests used:
[1] = test system: growth hormone; conditions: rats
[2] = test system: gastric secretion; conditions: man
[3] = test system: gastric secretion; conditions: dogs
[4] = test system: adrenal glands; conditions: hypophysectimized rats
[5] = test system: tracheal smooth muscle; conditions: in vitro preparations
[6] = test system: smooth muscle of the vas deferens; conditions: mammalian male reproductive system
[7] = test system: ovarian progesterone secretion; conditions: sheep
[8] = test system: blood platelets; conditions: in vitro
[9] = test system: motor pathways in the central nervous system
[10] = test system: adrenergic nervie endings; conditions: guinea pig
[11] = test system: thyroid activity; conditions: mice
[12] = test system: female reproductive system
[13] = test system: luteolytic factors; conditions: variety of mammals

Structure (SMILES) | gastric secretion [3] | release of growth hormone [1] | steriodogenesis in the adrenal glands [4] | effect on tracheal smooth muscle [5] | ovarian progesterone secretion [7] | transmission in motor pathways [9] | transmitter release from adrenergic nerve endings [10] | thyroid activity [11] | other results
CCCCC[C@H](O)/C=C/[C@H]1C=CC(=O)[C@@H]1CCCCCCC(=O)O [PGA1] | inhibit gastric secretion | – | – | – | – | – | – | – | synthesis of growth hormone [1]: increased synthesis of that hormone; gastric secretion [2]: exhibits similar activity in man
CCCCC[C@H](O)/C=C/[C@H]1[C@H](O)CC(=O)[C@@H]1CCCCCCC(=O)O [PGE1, prostaglandin E1] | inhibit gastric secretion | increase release of growth hormone | stimulate steriodogenesis in the adrenal glands | relax | inhibit ovarian progesterone secretion | retards | inhibit transmitter release | increase thyroid activity | effect on smooth muscle of the vas deferens [6]: contracts the smooth muscle of the vas deferens; thrombogenesis [8]: inhibits thrombogenesis in vitro
CCCCC[C@H](O)/C=C/[C@H]1[C@H](O)CC(=O)[C@@H]1C/C=C\CCCC(=O)O [PGE2] | inhibit gastric secretion | increase release of growth hormone | stimulate steriodogenesis in the adrenal glands | relax | – | – | inhibit transmitter release | increase thyroid activity | oxytocic effects ([12]; inducing labor): exerts potent oxytocic effects in inducing labor
CCCCC[C@H](O)/C=C/[C@@H]1[C@@H](CCCCCCC(=O)O)[C@@H](O)C[C@H]1O [PGF1α] | – | – | stimulate steriodogenesis in the adrenal glands | – | inhibit ovarian progesterone secretion | – | – | increase thyroid activity | luteolytic action [13]: act as luteolytic factors
CCCCC[C@H](O)/C=C/[C@@H]1[C@@H](CCCCCCC(=O)O)[C@H](O)C[C@H]1O [PGF1β] | – | – | – | – | – | – | – | increase thyroid activity | –
CCCCC[C@H](O)/C=C/[C@@H]1[C@@H](C/C=C\CCCC(=O)O)[C@@H](O)C[C@H]1O [PGF2α] | – | – | – | contracts the smooth muscle | – | facilitates transmission in motor pathways in the central nervous system | – | – | induction of spontaneous abortions ([12]; early pregnancy): induces spontaneous abortions in early pregnancy; effect on fertility / gestation ([12]; female reproductive system): has contragestational effects
